What all share (format): in vivo
Assay [1] has as its system rice (Oryza sativa L.). Description: Test Example 2: soil application on the day after sowing, rice. The gist of the method:
(§1)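 Seeds sown in upland field soil in 1/170,000 ha pots; next day, wettable powder or emulsifiable concentrate formulations were diluted in water at 500 L/ha and sprayed onto the soil. Growth was scored visually 19–28 days after application as growth inhibition (0% = untreated, 100% = complete kill).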

The test system of assay [2] is rice (Oryza sativa L.). Description: Test Example 1: foliar treatment, upland pot test, rice. The note with it: for inhibition at 63 g/ha: Oryza sativa, 63 g/ha active ingredient, observed 21st day after application, read-out: Growth inhibition rate (%) Rice; for Growth inhibition rate (%) Rice: 31 g/ha active ingredient, observed 17th to 25th day after application. The gist of the method:
(§2)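 Upland soil pots, sown; foliar spray at pigweed cotyledon–2.0 leaf, velvetleaf 0.1–1.5 leaf, rice 1.0–3.0 leaf, wheat 1.7–3.4 leaf. WP/EC formulations, prescribed a.i. rate, 500 L/ha spray volume + 0.1 vol % spreader. Visual % inhibition, d17–25.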

The subject of assay [3] is green foxtail (Setaria viridis L.). Description: Test Example 2: soil application on the day after sowing, green foxtail. The gist of the method: as §1
For assay [4], the system named is prickly sida (Sida spinosa L.). Description: Test Example 1: foliar treatment, upland pot test, prickly sida. The note with it: for inhibition at 63 g/ha: Sida spinosa, 63 g/ha active ingredient, observed 21st day after application, read-out: Growth inhibition rate (%) Prickly sida; for Growth inhibition rate (%) Prickly sida: 31 g/ha active ingredient, observed 17th to 25th day after application.

In assay [5] the test system is soybean (Glycine max Merr.). Put plainly: Test Example 2: soil application on the day after sowing, soybean. Summed up:
as §1

Assay [6] relates to corn (Zea mays L.). Description: Test Example 2: soil application on the day after sowing, corn. The gist of the method:
as §1

In assay [7] the test system is velvetleaf (Abutilon theophrasti MEDIC.). Description: Test Example 1: foliar treatment, upland pot test, velvetleaf. The note with it: for inhibition at 63 g/ha: Abutilon theophrasti, 63 g/ha active ingredient, observed 21st day after application, read-out: Growth inhibition rate (%) Velvetleaf; for Growth inhibition rate (%) Velvetleaf: 31 g/ha active ingredient, observed 17th to 25th day after application. Summed up: as §2

Assay [8] relates to prickly sida (Sida spinosa L.). Put plainly: Test Example 2: soil application on the day after sowing, prickly sida. The gist of the method:
as §1

Assay [9] relates to wheat (Triticum spp.). Description: Test Example 2: soil application on the day after sowing, wheat. Summed up:
as §1

In assay [10] the test system is green foxtail (Setaria viridis L.). Put plainly: Test Example 1: foliar treatment, upland pot test, green foxtail. The conditions noted are these: for inhibition at 63 g/ha: Setaria viridis, 63 g/ha active ingredient, observed 21st day after application, read-out: Growth inhibition rate (%) Green foxtail; for Growth inhibition rate (%) Green foxtail: 31 g/ha active ingredient, observed 17th to 25th day after application.

For assay [11], the system named is redroot pigweed (Amaranthus retroflexus L.). Description: Test Example 2: soil application on the day after sowing, redroot pigweed. Summed up: as §1
The subject of assay [12] is barnyardgrass (Echinochloa crus-galli L.). Description: Test Example 2: soil application on the day after sowing, barnyardgrass. Summed up: as §1
In assay [13] the test system is crabgrass (Digitaria sanquinalis L.). Description: Test Example 2: soil application on the day after sowing, crabgrass. The gist of the method:
as §1

In assay [14] the test system is velvetleaf (Abutilon theophrasti MEDIC.). Description: Test Example 2: soil application on the day after sowing, velvetleaf. The gist of the method:
as §1

For assay [15], the system named is soybean (Glycine max Merr.). Put plainly: Test Example 1: foliar treatment, upland pot test, soybean. The note with it: for inhibition at 63 g/ha: Glycine max, 63 g/ha active ingredient, observed 21st day after application, read-out: Growth inhibition rate (%) Soybean; for Growth inhibition rate (%) Soybean: 31 g/ha active ingredient, observed 17th to 25th day after application.

Assay [16] relates to wheat (Triticum spp.). Description: Test Example 1: foliar treatment, upland pot test, wheat. The conditions noted are these: for inhibition at 63 g/ha: Triticum, 63 g/ha active ingredient, observed 21st day after application, read-out: Growth inhibition rate (%) Wheat; for Growth inhibition rate (%) Wheat: 31 g/ha active ingredient, observed 17th to 25th day after application. Summed up:
as §2

Assay [17] relates to barnyardgrass (Echinochloa crus-galli L.). Description: Test Example 1: foliar treatment, upland pot test, barnyardgrass. The note with it: for inhibition at 63 g/ha: Echinochloa crus-galli, 63 g/ha active ingredient, observed 21st day after application, read-out: Growth inhibition rate (%) Barnyardgrass; for Growth inhibition rate (%) Barnyardgrass: 31 g/ha active ingredient, observed 17th to 25th day after application.

Assay [18] concerns redroot pigweed (Amaranthus retroflexus L.). Put plainly: Test Example 1: foliar treatment, upland pot test, redroot pigweed. The conditions noted are these: for inhibition at 63 g/ha: Amaranthus retroflexus, 63 g/ha active ingredient, observed 21st day after application, read-out: Growth inhibition rate (%) Redroot pigweed; for Growth inhibition rate (%) Redroot pigweed: 31 g/ha active ingredient, observed 17th to 25th day after application. The gist of the method: as §2

For assay [19], the system named is crabgrass (Digitaria sanguinalis L.). Description: Test Example 1: foliar treatment, upland pot test, crabgrass. The conditions noted are these: for inhibition at 63 g/ha: Digitaria sanguinalis, 63 g/ha active ingredient, observed 21st day after application, read-out: Growth inhibition rate (%) Crabgrass; for Growth inhibition rate (%) Crabgrass: 31 g/ha active ingredient, observed 17th to 25th day after application.

Assay [20] concerns corn (Zea mays L.). Description: Test Example 1: foliar treatment, upland pot test, corn. The note with it: for inhibition at 63 g/ha: Zea mays, 63 g/ha active ingredient, observed 21st day after application, read-out: Growth inhibition rate (%) Corn; for Growth inhibition rate (%) Corn: 31 g/ha active ingredient, observed 17th to 25th day after application.
Where [21] appears, read: 250 g/ha active ingredient, observed 19th to 28th day after application.

The values that follow come from patent US20100317528A1, “HERBICIDE CONTAINING BENZOYLPYRAZOLE COMPOUND” (ISHIHARA SANGYO KAISHA, LTD., priority 2006, published 2010).

Broadly, the inhibition is the share of the control response that was lost under treatment. For `CCn1ncc(C(=O)c2ccc(S(C)(=O)=O)c(OCCC3OCCO3)c2Cl)c1O` [compound 244], the inhibition at 250 g/ha turned out to be 80% in assay [1] (Oryza sativa, 250 g/ha active ingredient, observed 19th to 28th day after application, read-out: Growth inhibition rate (%) Rice); 70% in [3] (Setaria viridis, 250 g/ha active ingredient, observed 19th to 28th day after application, read-out: Growth inhibition rate (%) Green foxtail); 0% in assay [5] (Glycine max, 250 g/ha active ingredient, observed 19th to 28th day after application, read-out: Growth inhibition rate (%) Soybean); 0% in [6] (Zea mays, 250 g/ha active ingredient, observed 19th to 28th day after application, read-out: Growth inhibition rate (%) Corn); 60% in assay [8] (Sida spinosa, 250 g/ha active ingredient, observed 19th to 28th day after application, read-out: Growth inhibition rate (%) Prickly sida); 0% in [9] (Triticum, 250 g/ha active ingredient, observed 19th to 28th day after application, read-out: Growth inhibition rate (%) Wheat). For the same molecule, the inhibition at 250 g/ha in assay [11] (Amaranthus retroflexus, 250 g/ha active ingredient, observed 19th to 28th day after application, read-out: Growth inhibition rate (%) Redroot pigweed) is 90%; in assay [12] (Echinochloa crus-galli, 250 g/ha active ingredient, observed 19th to 28th day after application, read-out: Growth inhibition rate (%) Barnyardgrass) it was 100%; in assay [13] (Digitaria, 250 g/ha active ingredient, observed 19th to 28th day after application, read-out: Growth inhibition rate (%) Crabgrass), 90%; in assay [14] (Abutilon theophrasti, 250 g/ha active ingredient, observed 19th to 28th day after application, read-out: Growth inhibition rate (%) Velvetleaf), 80%. For the same molecule, the inhibition at 63 g/ha in assay [2] amounted to 10%; in assay [4] it was 50%; in assay [7] it was 70%; in [10], 40%; in [15], 70%; in assay [16] it was 0%. Further, the inhibition at 63 g/ha is 50% in assay [17], 80% in assay [18], 20% in assay [19] and 0% in assay [20].
As for `Cn1ncc(C(=O)c2ccc(S(C)(=O)=O)c(S(C)(=O)=O)c2Cl)c1O` [compound 247], the inhibition at 500 g/ha came to 98% in assay [1] (Oryza sativa, 500 g/ha active ingredient, observed 20th day after application, read-out: Growth inhibition rate (%) Rice); 100% in [3] (Setaria viridis, 500 g/ha active ingredient, observed 20th day after application, read-out: Growth inhibition rate (%) Green foxtail); 50% in assay [5] (Glycine max, 500 g/ha active ingredient, observed 20th day after application, read-out: Growth inhibition rate (%) Soybean); 0% in assay [6] (Zea mays, 500 g/ha active ingredient, observed 20th day after application, read-out: Growth inhibition rate (%) Corn); 75% in assay [8] (Sida spinosa, 500 g/ha active ingredient, observed 20th day after application, read-out: Growth inhibition rate (%) Prickly sida); 10% in assay [9] (Triticum, 500 g/ha active ingredient, observed 20th day after application, read-out: Growth inhibition rate (%) Wheat). Further, the inhibition at 500 g/ha in assay [11] (Amaranthus retroflexus, 500 g/ha active ingredient, observed 20th day after application, read-out: Growth inhibition rate (%) Redroot pigweed) stood at 100%; in assay [12] (Echinochloa crus-galli, 500 g/ha active ingredient, observed 20th day after application, read-out: Growth inhibition rate (%) Barnyardgrass), 100%; in [13] (Digitaria, 500 g/ha active ingredient, observed 20th day after application, read-out: Growth inhibition rate (%) Crabgrass), 100%; in assay [14] (Abutilon theophrasti, 500 g/ha active ingredient, observed 20th day after application, read-out: Growth inhibition rate (%) Velvetleaf), 100%. The inhibition at 63 g/ha in assay [2] was determined as 20%; in assay [4], 90%; in [7] it was 80%; in assay [10], 50%; in assay [15] it was 100%; in [16], 0%. Also, the inhibition at 63 g/ha in assay [17] stood at 90%; in assay [18], 100%; in [19], 30%; in assay [20], 0%.
On to `COCCOc1c(S(C)(=O)=O)ccc(C(=O)c2c(C)nn(C)c2O)c1C` [compound 259], for which the “Growth inhibition rate (%) Rice” value in assay [1] (setting [21]) is 10%; in assay [2], 70%. Further, the “Growth inhibition rate (%) Green foxtail” value in assay [3] (setting [21]) was found to be 60%; in assay [10] it was 100%. Besides, the figures for the “Growth inhibition rate (%) Prickly sida” value in assay [4] and in assay [8] (setting [21]) were 60% and 0%, respectively. Further, the “Growth inhibition rate (%) Soybean” value in assay [5] (setting [21]) was 20%; in assay [15] it was 95%. Also, the “Growth inhibition rate (%) Corn” value in assay [6] (setting [21]) and in [20] was 0% in each case. Further, the “Growth inhibition rate (%) Velvetleaf” value came out at 98% in [7] and 70% in assay [14] (setting [21]). Besides, the “Growth inhibition rate (%) Wheat” value in [9] (setting [21]) and in assay [16] was 0% in each case. For the same molecule, the “Growth inhibition rate (%) Redroot pigweed” value in assay [11] (setting [21]) is 90%; in [18], 95%. The “Growth inhibition rate (%) Barnyardgrass” value in [12] (setting [21]) was 10%; in assay [17] it was 95%. Further, the “Growth inhibition rate (%) Crabgrass” value in [13] (setting [21]) came out at 100%; in assay [19], 95%.
Turning to `CCc1nn(C)c(O)c1C(=O)c1ccc(S(C)(=O)=O)c(OCCOC)c1C` [compound 261], the “Growth inhibition rate (%) Rice” value is listed as 20% in assay [1] (setting [21]) and 80% in assay [2]. Moreover, the “Growth inhibition rate (%) Green foxtail” value came to 60% in [3] (setting [21]) and 80% in assay [10]. Further, the “Growth inhibition rate (%) Prickly sida” value in assay [4] was 50%; in assay [8] (setting [21]), 20%. In addition, the “Growth inhibition rate (%) Soybean” value in assay [5] (setting [21]) was found to be 0%; in assay [15], 50%. In addition, the “Growth inhibition rate (%) Corn” value is given as 20% in assay [6] (setting [21]) and 0% in assay [20]. The “Growth inhibition rate (%) Velvetleaf” value in assay [7] is reported as 95%; in [14] (setting [21]), 30%. The “Growth inhibition rate (%) Wheat” value in [9] (setting [21]) is listed as 0%; in assay [16] it was 5%. Further, the “Growth inhibition rate (%) Redroot pigweed” value in assay [11] (setting [21]) is reported as 100%; in assay [18], 95%. In addition, the “Growth inhibition rate (%) Barnyardgrass” value in [12] (setting [21]) is 50%; in [17], 90%. The “Growth inhibition rate (%) Crabgrass” value is 95% in [13] (setting [21]) and 90% in assay [19].
